Values of other authors as cited in patent US6355270B1, “Particles for oral delivery of peptides and proteins” (The Regents of the University of California, priority 1999, dated 2002).
Like-named read-outs stand apart in the source and are kept apart here.

What was measured:
[1] = system: intestinal tight junctions; conditions: rabbit intestine, in vitro, reversible
[2] = system: intestinal tight junctions; conditions: in vivo
[3] = system: diabetic rats

Zonula occludens toxin [Zot]
increase of intestinal permeability to insulin ([1]; P=0.034): 72%
increase of intestinal permeability to immunoglobulins ([1]; P=0.04): 52%
increase of insulin absorption ([2]; both rabbit jejunum and ileum): 10 fold
change of insulin absorption ([2]; rabbit colon): no substantial changes
increase of IgG absorption ([2]; rabbit ileum): six-fold
increase of IgG absorption ([2]; rabbit jejunum): twofold
survival time ([3]; diabetic animals chronically treated with oral insulin+Zot, versus parenterally treated rats): comparable to that observed in parenterally treated rats
lowering of serum glucose concentrations ([3]; diabetic rats, oral insulin co-administered with Zot, versus parenteral injection of insulin): comparable to those obtained after parenteral injection of the hormone
